Results: ChEMBL document CHEMBL1201862, “PubChem BioAssay data set” (2004)
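Test compounds were applied to cells in 96-well plates for 48 hours at 5 doses. GI50: concentration for 50% inhibition of growth.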 The source made the active and inactive calls. Rule as the data show it: active = GI50 up to about 1.1 µM and inactive = higher.

How the values were obtained:
Test in all cases: growth of human tumour cells (NCI), 48 h
NCI-H226 = tested on: NCI-H226
SNB-19 = tested on: SNB-19
SF-295 = tested on: SF-295
HCC 2998 = tested on: HCC 2998
HL-60 = tested on: HL-60
HT-29 = tested on: HT-29
RXF 393 = tested on: RXF 393
IGROV-1 = tested on: IGROV-1
A549 = tested on: A549
SK-MEL-5 = tested on: SK-MEL-5
HCT-15 = tested on: HCT-15
NCI-H23 = tested on: NCI-H23
UO-31 = tested on: UO-31
HCT-116 = tested on: HCT-116
K562 = tested on: K562
SN12C = tested on: SN12C
A498 = tested on: A498
SF-539 = tested on: SF-539
SR = tested on: SR

SMILES	GI50 (NCI-H226)	GI50 (SNB-19)	GI50 (SF-295)	GI50 (HCC 2998)	GI50 (HL-60)	GI50 (HT-29)	GI50 (RXF 393)	GI50 (IGROV-1)	GI50 (A549)	GI50 (SK-MEL-5)	GI50 (HCT-15)	GI50 (NCI-H23)	GI50 (UO-31)	GI50 (HCT-116)	GI50 (K562)	GI50 (SN12C)	GI50 (A498)	GI50 (SF-539)	GI50 (SR)
COc1cc(N(CCC#N)CCC#N)ccc1C(/N=N/c1ccccc1C)=N\NC(=O)c1ccc(C)cc1	> 100 µM (inactive)	63 µM (inactive)	> 100 µM (inactive)	85.3 µM (inactive)	2.15 µM (inactive)	85.3 µM (inactive)	> 100 µM (inactive)	75 µM (inactive)	59.6 µM (inactive)	> 100 µM (inactive)	> 100 µM	91.8 µM (inactive)	76.2 µM (inactive)	36.1 µM (inactive)	29.8 µM (inactive)	44.1 µM (inactive)			
CC(=O)NCCCCN(CCCNC(C)=O)C(=O)OCc1ccccc1	> 100 µM (inactive)		> 100 µM (inactive)	> 100 µM (inactive)	> 100 µM (inactive)	> 100 µM (inactive)	> 100 µM (inactive)	> 100 µM (inactive)	> 100 µM (inactive)	> 100 µM (inactive)	> 100 µM	> 100 µM (inactive)	64.3 µM (inactive)	> 100 µM (inactive)	> 100 µM (inactive)	> 100 µM (inactive)	> 100 µM (inactive)	> 100 µM (inactive)	
N#Cc1c(N)nc2c(C#N)c(N)cc3c2c1Oc1ccccc1-3	> 100 µM (inactive)	> 100 µM (inactive)	> 100 µM (inactive)	> 100 µM (inactive)	> 100 µM (inactive)	> 100 µM (inactive)	> 100 µM (inactive)	> 100 µM (inactive)	> 100 µM (inactive)	> 100 µM (inactive)	> 100 µM	> 100 µM (inactive)	> 100 µM (inactive)	> 100 µM (inactive)	> 100 µM (inactive)	> 100 µM (inactive)	> 100 µM (inactive)	> 100 µM (inactive)	
Cc1ccc(-n2cnc3c(N)nc(N)nc32)cc1	> 100 µM (inactive)	> 100 µM (inactive)	> 100 µM (inactive)	76.2 µM (inactive)		> 100 µM (inactive)	43.6 µM (inactive)	> 100 µM (inactive)	69.5 µM (inactive)	> 100 µM (inactive)	> 100 µM	> 100 µM (inactive)	58.9 µM (inactive)	> 100 µM (inactive)		> 100 µM (inactive)	> 100 µM (inactive)	> 100 µM (inactive)	
COc1ccc(/C=C(\C#N)c2nc(-c3cc4ccccc4oc3=O)cs2)cc1	31.6 µM (inactive)	16.4 µM (inactive)	21.9 µM (inactive)	32.6 µM (inactive)	> 100 µM (inactive)	41.3 µM (inactive)	21.1 µM (inactive)	22.2 µM (inactive)	32.3 µM (inactive)	22.1 µM (inactive)	51.6 µM		23.2 µM (inactive)	32.3 µM (inactive)	58.5 µM (inactive)	23.8 µM (inactive)		21 µM (inactive)	> 100 µM (inactive)
CN(Cc1ccccc1)c1cc(=O)n(C)c(=O)[nH]1	> 100 µM (inactive)	> 100 µM (inactive)	> 100 µM (inactive)	> 100 µM (inactive)	> 100 µM (inactive)	> 100 µM (inactive)			> 100 µM (inactive)	> 100 µM (inactive)	> 100 µM	> 100 µM (inactive)	> 100 µM (inactive)	> 100 µM (inactive)	> 100 µM (inactive)	> 100 µM (inactive)	58.2 µM (inactive)	> 100 µM (inactive)	
O=C1CCCc2ccc3c(c21)CC1(Cc2ccccc2C1)C3	13.3 µM (inactive)		24.2 µM (inactive)	41.5 µM (inactive)		17.5 µM (inactive)	33.3 µM (inactive)	50.9 µM (inactive)	34.7 µM (inactive)	18.5 µM (inactive)	41.7 µM	36.8 µM (inactive)	50.1 µM (inactive)	23 µM (inactive)	10.8 µM (inactive)	26.1 µM (inactive)	25.6 µM (inactive)	31.6 µM (inactive)	
CC1C(c2ccc(Cl)cc2)c2cc3c(cc2OC1N1CCOCC1)OCO3 (stereo unspecified)		80.9 µM (inactive)	31.8 µM (inactive)	> 100 µM (inactive)		49.5 µM (inactive)		> 100 µM (inactive)	75.7 µM (inactive)	51.3 µM (inactive)	> 100 µM	> 100 µM (inactive)	54.3 µM (inactive)	95.1 µM (inactive)	> 100 µM (inactive)	> 100 µM (inactive)		45 µM (inactive)	0.931 µM (active)
CCCCCCCCCCCCCCCCCCNC(=S)N/C=C1/C(=O)C=C(C)OC1=O	32.9 µM (inactive)	20.4 µM (inactive)	23.8 µM (inactive)	9.53 µM (inactive)	3.31 µM (inactive)	20.8 µM (inactive)		16.9 µM (inactive)	25.9 µM (inactive)	29.6 µM (inactive)	15.7 µM	22.8 µM (inactive)	16.9 µM (inactive)	30.1 µM (inactive)		37.8 µM (inactive)		24.3 µM (inactive)	
